The target of the experiment is T1, hMCH-1R (Homo sapiens, UniProt Q99705).
T1 construct: expressed in transfected cells; host or cells: CHO/Galpha16 cells (stably transfected); membranes used
The experiment can be described thus: MCH-1 receptor binding test (125I-MCH binding to hMCH-1R transfected cell membranes). To be noted: hMCH-1R transfected CHO/Galpha16 cell membranes. The method, then: Membranes from CHO/Galpha 16 cells stably transfected with human hMCH-1R are resuspended using a syringe (needle 0.6×25 mm) and diluted in test buffer (50 mM HEPES, 10 mM MgCl2, 2 mM EGTA, pH 7.00; 0.1% bovine serum albumin (protease-free), 0.021% bacitracin,1 μg/mL aprotinin, 1 μg/mL leupeptin and 1 μM phosphoramidone) to a concentration of 5 to 15 μg/mL. […] After the incubation the reaction is filtered using a cell harvester through 0.5% PEI treated glass fibre filters (GF/B, Unifilter Packard). The membrane-bound radioactivity retained on the filter is then determined after the addition of scintillator substance (Packard Microscint 20) in a measuring device (TopCount of Packard).
The analysis of the concentration binding curve is carried out on the assumption of one receptor binding site.

Among the data in patent US7351719B2, “Amide compounds having MCH-antagonistic activity and medicaments comprising these compounds” (Boehringer Ingelheim Pharma GmbH & Co. KG, priority 2002, dated 2008) are IC50 values, retold here.

T1 sequence (Q99705 whole entry): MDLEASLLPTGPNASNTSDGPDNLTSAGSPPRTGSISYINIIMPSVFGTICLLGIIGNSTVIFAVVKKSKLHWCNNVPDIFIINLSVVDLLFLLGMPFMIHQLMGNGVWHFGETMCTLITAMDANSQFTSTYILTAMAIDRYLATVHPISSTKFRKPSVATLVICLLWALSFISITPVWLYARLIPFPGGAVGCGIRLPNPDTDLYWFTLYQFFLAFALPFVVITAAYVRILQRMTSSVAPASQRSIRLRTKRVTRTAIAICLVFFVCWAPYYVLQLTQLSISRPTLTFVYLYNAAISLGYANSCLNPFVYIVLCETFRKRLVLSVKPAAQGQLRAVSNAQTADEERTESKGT

Compound `CCN(CC)CCn1ccc2cc(NC(=O)COc3ccc(C(F)(F)F)cc3Cl)ccc21` [Example 12] returned an IC50 of 41 nM.

`CCN(CC)CCOc1ccc(NC(=O)COc2ccc(C(C)(C)C)cc2Cl)cc1Cl` [Example 34] yielded an IC50 of 17 nM. Compared with the last compound, the IC50 is about 2.4-fold lower.
